Assays:
[1] = Dissociation constant, pKa of the compound; format: physicochemical
[2] = Drug recovery in plasma (unknown origin); format: ADME, cell-free
[3] = Unbound fraction in plasma (unknown origin) under normal atmospheric condition at pH 7.72 after 6 hrs by equilibrium dialysis method; format: ADME, cell-free
[4] = Unbound fraction in plasma (unknown origin) at pH 7.63 after 6 hrs by equilibrium dialysis method in presence of 5% CO2; format: ADME, cell-free
[5] = Unbound fraction in plasma (unknown origin) at pH 7.4 after 6 hrs by equilibrium dialysis method in presence of 5% CO2; format: ADME, cell-free
[6] = Unbound fraction in plasma (unknown origin) under normal atmospheric condition at pH 7.22 after 6 hrs by equilibrium dialysis method; format: ADME, cell-free

Row | Structure (SMILES) | pKa [1] | Compound recovery [2] | fraction unbound at 6 h [3] | fraction unbound at 6 h [4] | fraction unbound at 6 h [5] | fraction unbound at 6 h [6]
1 | Cc1ncc2n1-c1ccc(Cl)cc1C(c1ccccc1F)=NC2 [MIDAZOLAM] | 9 | 63% | 0.019 | 0.041 | 0.036 | 0.034
2 | CN1C(=O)CN=C(c2ccccc2)c2cc(Cl)ccc21 [DIAZEPAM] |  | > 70% |  |  |  | 
3 | COC(=O)C1=C(C)NC(C)=C(C(=O)OCCN(C)Cc2ccccc2)C1c1cccc([N+](=O)[O-])c1 (stereo not given) [NICARDIPINE] | 7.2 | > 70% | 0.003 | 0.008 | 0.005 | 0.008
4 | Cc1nc2n(c(=O)c1CCN1CCC(c3noc4cc(F)ccc34)CC1)CCCC2 [RISPERIDONE] |  | > 70% | 0.163 | 0.222 | 0.186 | 0.276
5 | CN1CCN(C2=Nc3cc(Cl)ccc3Nc3ccccc32)CC1 [CLOZAPINE] |  | > 70% | 0.042 | 0.058 | 0.081 | 0.101
6 | CNCCC(Oc1ccc(C(F)(F)F)cc1)c1ccccc1 (stereo not given) [FLUOXETINE] |  | > 70% | 0.04 | 0.063 | 0.056 | 0.079
7 | C=C[C@H]1C[N@@]2CC[C@H]1C[C@@H]2[C@@H](O)c1ccnc2ccc(OC)cc12 [QUINIDINE] |  | > 70% |  |  |  | 
8 | O=C1CC2(CCCC2)CC(=O)N1CCCCN1CCN(c2ncccn2)CC1 [BUSPIRONE] | 7.3 | > 70% |  |  |  | 
9 | COc1ccc([C@@H]2Sc3ccccc3N(CCN(C)C)C(=O)[C@@H]2OC(C)=O)cc1 [DILTIAZEM] | 8 | > 70% | 0.298 | 0.35 | 0.349 | 0.417
10 | Fc1ccc([C@@H]2CCNC[C@H]2COc2ccc3c(c2)OCO3)cc1 [PAROXETINE] | 9.5 | > 70% | 0.074 | 0.089 | 0.099 | 0.136
11 | NC(=O)N1c2ccccc2C=Cc2ccccc21 [CARBAMAZEPINE] |  | > 70% | 0.299 | 0.288 | 0.291 | 0.303
12 | CCN(CC)C(=O)C1(c2ccccc2)CC1CN (stereo not given) | 9.7 | > 70% | 0.828 | 0.777 | 0.837 | 0.809
13 | CN1CCN2c3ncccc3Cc3ccccc3C2C1 (stereo not given) [MIRTAZAPINE] |  | > 70% | 0.16 | 0.266 | 0.286 | 0.32
14 | N[C@@H]1C[C@H]1c1ccccc1.N[C@H]1C[C@@H]1c1ccccc1 (racemic) [TRANYLCYPROMINE] | 8.2 | > 70% | 0.49 | 0.53 | 0.612 | 0.63
15 | O=C(O)Cc1ccccc1Nc1c(Cl)cccc1Cl [DICLOFENAC] |  | > 70% |  |  |  | 
16 | COc1ccc(CCN(C)CCCC(C#N)(c2ccc(OC)c(OC)c2)C(C)C)cc1OC (stereo not given) |  | > 70% |  |  |  | 
17 | CC(CN(C)C)CN1c2ccccc2CCc2ccccc21 (stereo not given) [TRIMIPRAMINE] | 8.4 | > 70% | 0.037 | 0.052 | 0.054 | 0.106
18 | CC(C)NCC(O)COc1cccc2ccccc12 (stereo not given) [PROPRANOLOL] |  | > 70% | 0.216 | 0.213 | 0.231 | 0.315
19 | CC(=O)CC(c1ccccc1)c1c(O)c2ccccc2oc1=O (stereo not given) [WARFARIN] |  | > 70% |  |  |  | 
20 | CCn1nc(C(=O)O)c(=O)c2cc3c(cc21)OCO3 [CINOXACIN] | 4.7 | > 70% | 0.266 | 0.23 | 0.214 | 0.251
21 | CN(C)CCCN1c2ccccc2CCc2ccccc21 [IMIPRAMINE] |  | > 70% | 0.105 | 0.172 | 0.181 | 0.22
22 | O=C(CCCN1CCC(O)(c2ccc(Cl)cc2)CC1)c1ccc(F)cc1 [HALOPERIDOL] |  | > 70% | 0.124 | 0.164 | 0.161 | 0.223
